One compound from paper PMC12516686, “Design of 2‑Aminobenzothiazole Derivatives Targeting Trypanosomatid PTR1 by a Multidisciplinary Fragment Hybridization Approach” (Journal of Medicinal Chemistry, 2025) can be followed below.

Series [1] is described as follows: Cytotoxicity assay (MTT) on THP-1-derived macrophages. Format: cell-based, Human. Particulars: human, THP-1-derived macrophages, cytotoxic concentration for THP1 cells; read-out: CC50 THP1. The procedure: Human leukemia cell line THP-1 (ATCC TIB202) cells were cultured in RPMI-1640 medium supplemented with 10% heat-inactivated fetal bovine serum (FBS), 2 mM L-glutamine, 100 IU/mL penicillin/streptomycin, and 20 mM HEPES. The cell line was maintained in a humidified incubator at 37 °C with 5% CO2. Subcultures were performed every 3 days in 20 mL of media at a concentration of 2 × 10^5 cells/mL in a T75 flask. All cell culture reagents were purchased from Lonza Bioscience (Morrisville, NC).
The cytotoxicity of the compounds on THP-1-derived macrophages was assessed using the colorimetric MTT assay (3-(4,5-dimethylthiazol-2-yl)-2,5-diphenyl tetrazolium bromide) as described elsewhere. THP-1 cells were suspended in RPMI complete medium at a density of 1 × 10^6 cells/mL, and 100 μL/well was seeded in a 96-well plate. The cells were differentiated into macrophages by adding 40 ng/mL of phorbol-myristate 13-acetate (PMA, Sigma, Saint Louis, MI, USA) for 24 h, followed by replacement with fresh medium for another 24 h. Subsequently, the cells were incubated with 100 μL of compounds, ranging from 100 to 12.5 μM, diluted in RPMI complete medium. Each condition was tested in triplicate. After 72 h of incubation at 37 °C with 5% CO2, the medium was removed, and 200 μL of 0.5 mg/mL MTT solution diluted in RPMI was added. The plates were incubated for an additional 4 h, after which 160 μL of the media was removed and replaced with 160 μL of 2-propanol. Absorbance was read at 570 nm using a Synergy 2 Multi-Mode Reader (Biotek, Winooski, VT, USA). Cytotoxicity was evaluated by presenting the CC50 (the concentration of the drug that reduces cell viability by 50%) interval or by determining the CC50 value through nonlinear regression analysis using GraphPad Prism version 8.1.1 for Windows (GraphPad Software, San Diego, CA, USA). Results represent the average of at least three independent experiments.

A further series relates to 786-O cell line. Briefly: Mitochondrial toxicity (MitoTracker Red uptake, high content imaging). It is filed as cell-based. Particulars: Homo sapiens, 786-0; read-out: mitotox. IC50. From the text:
Mitochondrial toxicity caused by the synthesized compounds. Uptake of Mito-
Tracker Red (chloromethyl-X-rosamine) to the 786-O cell line was detected with high content
imaging. […]

For another series, the target named is T1, LmPTR1 (Leishmania major, UniProt Q01782).
T1 sequence (Q01782 1-288): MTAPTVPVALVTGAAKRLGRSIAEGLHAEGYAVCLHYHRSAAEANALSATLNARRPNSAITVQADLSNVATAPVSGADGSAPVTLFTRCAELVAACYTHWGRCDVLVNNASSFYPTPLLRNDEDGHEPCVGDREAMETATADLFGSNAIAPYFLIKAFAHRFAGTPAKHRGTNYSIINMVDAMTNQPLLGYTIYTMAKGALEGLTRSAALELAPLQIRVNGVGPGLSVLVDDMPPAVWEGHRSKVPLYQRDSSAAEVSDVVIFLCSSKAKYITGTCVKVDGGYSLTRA
Briefly: LmPTR1 indirect (cytochrome c-coupled) enzyme assay. Conditions: at 50 μM. It is filed as biochemical. The procedure:
The in vitro assays used in the current study were based on those reported in the literature. As PTR1 enzymes use dihydrobiopterin (H2B) as a substrate and also require NADPH for the reaction, the reduction of H2B to tetrahydrobiopterin by PTR1 is nonenzymatically linked with the reduction of cytochrome c in this assay, which is detected at 550 nm. The formation of cyt c Fe^2+ results in an increase in the photometric readout. TbPTR1 and LmPTR1 activity was assayed in a buffer containing 20 mM sodium citrate (pH 6.0). The final reaction mixture contained the test compound at a range of concentrations and TbPTR1/LmPTR1 (6.0 nM/12 nM), H2B (0.3 μM/3 μM), cytochrome c (100 μM/100 μM), and NADPH (500 μM/500 μM). The final assay volume was 50 μL in 384-well clear plates (Greiner Bio-One, 781101). Compound screening was performed by the addition of the compound to the assay plates (in 100% DMSO), followed by the addition of 45 μL Reaction Mix (enzyme, H2B cytochrome c in 20 mM sodium citrate buffer). A pre-read was made at 550 nm using an EnVision Multilabel Reader 2103 (PerkinElmer Inc., US), followed by incubation of the assay plates at 30 °C for 10 min. The reaction was initiated by the addition of 5 μL of NADPH (5 mM in ultrapure water) followed by kinetically reading the assay plates at 550 nm using the EnVision Multilabel Reader at 10, 20, 30, 40, and 50 min. The slope of each assay well was calculated. The screening data were analyzed using ActivityBase (IDBS), and for outlier elimination in the control wells, the 3-σ method was applied. Based on the slope, the data were normalized to the positive control methotrexate for TbPTR1/LmPTR1 (1 μM/50 μM, yielding 100% inhibition) and negative controls (1% DMSO, yielding 0% inhibition), and % inhibition was calculated for all samples. The measurement at time 0 min was used to flag optically interfering samples. Each compound was tested in triplicate, and the pIC50 value, standard deviation, Hill slope, and minimum and maximum signals for each dose–response curve were obtained using a 4-parameter logistic fit in the XE module of Activity Base (IDBS), as also reported previously. ,

The target of the next series is T2, CYP3A4 (Homo sapiens, UniProt P08684).
T2 construct: purchased Promega; host or cells: baculovirus-infected insect cells
T2 sequence (P08684 whole entry): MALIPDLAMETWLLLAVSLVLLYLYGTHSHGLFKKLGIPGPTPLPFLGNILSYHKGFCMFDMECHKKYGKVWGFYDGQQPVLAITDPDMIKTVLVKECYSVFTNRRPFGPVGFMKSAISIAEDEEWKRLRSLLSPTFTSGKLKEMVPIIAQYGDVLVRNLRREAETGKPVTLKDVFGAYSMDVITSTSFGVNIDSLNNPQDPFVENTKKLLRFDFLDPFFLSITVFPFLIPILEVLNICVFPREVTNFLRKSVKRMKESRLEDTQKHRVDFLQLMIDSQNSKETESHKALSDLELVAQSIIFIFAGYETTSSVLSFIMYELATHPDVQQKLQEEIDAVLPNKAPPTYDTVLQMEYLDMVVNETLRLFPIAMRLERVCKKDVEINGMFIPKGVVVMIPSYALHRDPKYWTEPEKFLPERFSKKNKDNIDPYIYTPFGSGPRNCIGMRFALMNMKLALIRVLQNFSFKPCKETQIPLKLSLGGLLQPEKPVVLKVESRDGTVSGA
Briefly: Cytochrome P450 assay (P450-Glo), isoform 3A4. It is filed as in vitro ADME. Conditions: read-out: CYP 3A4 IC50. The text has this:
(§1) 3A4. The Promega P450-Glo assay platform was used with microsomal preparations of
(§2) cytochrome P450s from baculovirus-infected insect cells. […]

A further series deals with T3, CYP2C19 (Homo sapiens, UniProt P33261).
T3 construct: purchased Promega; host or cells: baculovirus-infected insect cells
T3 sequence (P33261 whole entry): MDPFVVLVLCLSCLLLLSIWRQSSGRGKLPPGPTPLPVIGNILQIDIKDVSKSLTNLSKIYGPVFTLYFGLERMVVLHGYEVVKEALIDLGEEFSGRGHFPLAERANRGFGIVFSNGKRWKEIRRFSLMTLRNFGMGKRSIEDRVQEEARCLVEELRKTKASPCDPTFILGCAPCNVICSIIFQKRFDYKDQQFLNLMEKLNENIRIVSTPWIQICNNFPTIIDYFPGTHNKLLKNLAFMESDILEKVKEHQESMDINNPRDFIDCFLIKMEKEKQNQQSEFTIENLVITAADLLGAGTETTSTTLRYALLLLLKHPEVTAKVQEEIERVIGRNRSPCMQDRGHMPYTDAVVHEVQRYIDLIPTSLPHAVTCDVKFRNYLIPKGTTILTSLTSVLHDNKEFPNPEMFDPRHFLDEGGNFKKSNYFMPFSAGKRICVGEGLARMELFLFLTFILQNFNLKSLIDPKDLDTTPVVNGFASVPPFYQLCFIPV
Briefly: Cytochrome P450 assay (P450-Glo), isoform 2C19. It is filed as in vitro ADME. Conditions: read-out: CYP 2C19 IC50.
Description: as §1, §2

The next series addresses T4, hERG (Homo sapiens, UniProt Q12809).
T4 construct: purchased Invitrogen
Briefly: hERG liability assay. On the technique in general: The hERG channel carries a current that helps repolarise heart muscle cells.

The next series addresses T5, CYP2C9 (Homo sapiens, UniProt P11712).
T5 construct: purchased Promega; host or cells: baculovirus-infected insect cells
Briefly: Cytochrome P450 assay (P450-Glo), isoform 2C9. It is filed as in vitro ADME. Conditions: read-out: CYP 2C9 IC50.
Description: as §1, §2

T4 sequence (Q12809 whole entry): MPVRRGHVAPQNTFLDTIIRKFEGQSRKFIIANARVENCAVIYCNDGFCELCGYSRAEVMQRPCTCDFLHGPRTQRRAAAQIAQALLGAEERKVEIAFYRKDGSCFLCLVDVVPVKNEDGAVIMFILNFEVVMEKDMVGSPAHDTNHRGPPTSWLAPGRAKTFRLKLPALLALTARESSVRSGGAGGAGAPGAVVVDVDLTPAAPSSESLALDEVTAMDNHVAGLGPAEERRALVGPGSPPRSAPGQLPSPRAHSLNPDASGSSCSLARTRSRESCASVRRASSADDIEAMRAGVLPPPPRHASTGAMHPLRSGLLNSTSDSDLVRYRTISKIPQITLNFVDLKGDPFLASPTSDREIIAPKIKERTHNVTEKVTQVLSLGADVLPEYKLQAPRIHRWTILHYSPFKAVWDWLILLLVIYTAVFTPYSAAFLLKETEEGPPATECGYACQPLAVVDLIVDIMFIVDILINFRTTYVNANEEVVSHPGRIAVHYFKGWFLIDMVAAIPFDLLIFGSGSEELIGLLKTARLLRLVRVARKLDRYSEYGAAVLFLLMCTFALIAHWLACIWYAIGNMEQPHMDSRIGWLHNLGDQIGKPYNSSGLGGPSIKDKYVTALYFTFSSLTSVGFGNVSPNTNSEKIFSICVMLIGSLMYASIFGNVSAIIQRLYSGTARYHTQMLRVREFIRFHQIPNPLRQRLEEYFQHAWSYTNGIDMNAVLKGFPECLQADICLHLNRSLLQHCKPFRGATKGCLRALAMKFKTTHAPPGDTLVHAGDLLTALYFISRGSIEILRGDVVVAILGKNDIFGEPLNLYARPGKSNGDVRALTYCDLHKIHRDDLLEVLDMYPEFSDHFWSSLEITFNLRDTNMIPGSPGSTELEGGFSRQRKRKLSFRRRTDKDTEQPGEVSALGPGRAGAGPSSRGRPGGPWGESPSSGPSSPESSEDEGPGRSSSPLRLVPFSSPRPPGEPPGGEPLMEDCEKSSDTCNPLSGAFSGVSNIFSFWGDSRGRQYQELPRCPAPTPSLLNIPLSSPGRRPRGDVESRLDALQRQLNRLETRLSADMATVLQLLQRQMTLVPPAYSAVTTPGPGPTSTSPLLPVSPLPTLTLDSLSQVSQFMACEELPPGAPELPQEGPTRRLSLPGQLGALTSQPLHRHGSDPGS
T5 sequence (P11712 whole entry): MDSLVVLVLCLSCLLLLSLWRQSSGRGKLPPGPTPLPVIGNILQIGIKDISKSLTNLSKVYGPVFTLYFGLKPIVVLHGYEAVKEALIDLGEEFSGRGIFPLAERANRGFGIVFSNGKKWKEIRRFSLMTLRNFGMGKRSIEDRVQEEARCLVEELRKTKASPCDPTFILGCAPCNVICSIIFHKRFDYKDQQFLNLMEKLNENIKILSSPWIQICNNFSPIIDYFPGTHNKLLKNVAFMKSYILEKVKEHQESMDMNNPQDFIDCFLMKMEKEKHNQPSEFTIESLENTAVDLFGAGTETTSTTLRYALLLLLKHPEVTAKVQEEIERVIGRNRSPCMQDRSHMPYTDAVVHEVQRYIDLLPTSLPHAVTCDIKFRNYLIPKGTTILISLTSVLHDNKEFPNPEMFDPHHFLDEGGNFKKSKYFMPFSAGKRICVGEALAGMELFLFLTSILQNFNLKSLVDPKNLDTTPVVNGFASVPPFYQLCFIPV

On to `Nc1nc2ccccc2n1Cc1ccc(Cl)c(Cl)c1` [I, 1-(3,4-dichlorobenzyl)-1H-benzimidazol-2-amine, reference compound], for which the CC50 – broadly, the concentration at which the toxic effect on the cells reaches its halfway point – at 72 h in series [1] was 8 µM. Besides, the IC50 (commonly the point on the concentration scale where inhibition reaches its midpoint) in the series with 786-O cell line stood at 38.6 µM; at CYP3A4, 3.1 µM; on CYP2C19, 0.3 µM; against hERG it was 0.85 µM; on CYP2C9, 4.2 µM. Besides, at 50 µM the inhibition against LmPTR1 was 75 ± 1%.
